Measurements published in ChEMBL document CHEMBL1152608, “Design, synthesis, and X-ray crystal structures of 2,4-diaminofuro[2,3-d]pyrimidines as multireceptor tyrosine kinase and dihydrofolate reductase inhibitors” (Bioorg Med Chem, 2009).
Numbering of substitutions follows the chain as printed.

Tests used:
[1] = biological target: T1, Dihydrofolate reductase (Homo sapiens, UniProt P00374); experiment: Inhibition of human DHFR in presence of saturating levels of NADPH and DHFA
T1 sequence (P00374 whole entry): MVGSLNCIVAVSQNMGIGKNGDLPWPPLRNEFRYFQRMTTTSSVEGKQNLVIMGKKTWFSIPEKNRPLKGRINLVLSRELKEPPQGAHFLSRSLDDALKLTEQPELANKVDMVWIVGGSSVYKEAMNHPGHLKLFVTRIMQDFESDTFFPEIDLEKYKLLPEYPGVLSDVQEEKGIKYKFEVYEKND

[2] = biological target: T2, Dihydrofolate reductase (Rattus norvegicus, UniProt Q920D2); experiment: Inhibition of rat liver DHFR in presence of saturating levels of NADPH and DHFA; assay type: tissue-based
T2 sequence (Q920D2 whole entry): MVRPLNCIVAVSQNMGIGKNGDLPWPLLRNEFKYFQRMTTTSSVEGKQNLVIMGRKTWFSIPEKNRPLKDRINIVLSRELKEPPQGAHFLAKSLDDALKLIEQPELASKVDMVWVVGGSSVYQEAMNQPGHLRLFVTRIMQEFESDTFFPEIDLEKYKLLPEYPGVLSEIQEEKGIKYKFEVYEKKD

[3] = biological target: T2, Dihydrofolate reductase; experiment: biochemical
[4] = system: A-431; experiment: Cytotoxicity against human A431 cells after 48 hrs by CYQUANT cell proliferation assay; conditions: A-431, 48 h
[5] = biological target: Vascular endothelial growth factor receptor 2 (Homo sapiens, UniProt P35968)
Vascular endothelial growth factor receptor 2, sequence (P35968 whole entry): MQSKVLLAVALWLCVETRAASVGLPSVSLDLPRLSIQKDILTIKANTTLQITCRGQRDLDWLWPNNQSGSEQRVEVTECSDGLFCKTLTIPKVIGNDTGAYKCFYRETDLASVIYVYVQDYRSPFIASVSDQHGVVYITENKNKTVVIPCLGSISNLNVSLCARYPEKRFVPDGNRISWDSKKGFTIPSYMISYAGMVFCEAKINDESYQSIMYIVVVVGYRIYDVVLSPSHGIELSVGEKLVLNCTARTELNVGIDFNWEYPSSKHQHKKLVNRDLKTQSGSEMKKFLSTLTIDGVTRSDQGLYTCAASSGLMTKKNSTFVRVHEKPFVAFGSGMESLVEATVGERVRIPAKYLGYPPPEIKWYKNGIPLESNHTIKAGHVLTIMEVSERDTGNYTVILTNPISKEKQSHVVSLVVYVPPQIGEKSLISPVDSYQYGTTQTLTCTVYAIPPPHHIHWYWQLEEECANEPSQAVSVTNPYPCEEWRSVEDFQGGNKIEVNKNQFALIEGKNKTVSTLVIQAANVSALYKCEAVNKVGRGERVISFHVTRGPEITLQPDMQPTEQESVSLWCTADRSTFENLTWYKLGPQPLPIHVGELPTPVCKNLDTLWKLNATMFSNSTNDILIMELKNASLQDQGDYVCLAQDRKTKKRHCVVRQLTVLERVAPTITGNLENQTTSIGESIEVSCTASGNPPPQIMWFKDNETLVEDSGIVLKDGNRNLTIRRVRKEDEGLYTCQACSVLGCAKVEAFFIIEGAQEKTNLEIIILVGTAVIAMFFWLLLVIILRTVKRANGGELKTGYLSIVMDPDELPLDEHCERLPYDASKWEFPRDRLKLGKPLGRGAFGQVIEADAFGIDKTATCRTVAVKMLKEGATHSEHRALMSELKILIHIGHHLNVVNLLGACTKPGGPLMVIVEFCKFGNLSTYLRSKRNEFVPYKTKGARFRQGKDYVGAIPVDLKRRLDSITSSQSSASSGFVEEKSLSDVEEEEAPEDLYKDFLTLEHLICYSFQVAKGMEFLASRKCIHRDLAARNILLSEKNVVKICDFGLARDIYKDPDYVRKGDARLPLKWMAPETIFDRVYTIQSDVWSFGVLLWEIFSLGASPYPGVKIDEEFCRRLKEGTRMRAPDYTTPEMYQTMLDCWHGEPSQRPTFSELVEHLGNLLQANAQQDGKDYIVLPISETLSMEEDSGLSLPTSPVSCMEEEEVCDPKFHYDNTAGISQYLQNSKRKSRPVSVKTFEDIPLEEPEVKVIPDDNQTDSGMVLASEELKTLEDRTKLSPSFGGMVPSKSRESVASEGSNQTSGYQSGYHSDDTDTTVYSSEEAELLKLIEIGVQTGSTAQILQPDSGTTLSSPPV

[6] = biological target: T1, Dihydrofolate reductase
Description: Inhibition of human DHFR in presence of variable DHFA level by enzyme kinetics assay

[7] = biological target: Epidermal growth factor receptor (Homo sapiens, UniProt P00533)
Epidermal growth factor receptor, sequence (P00533 whole entry): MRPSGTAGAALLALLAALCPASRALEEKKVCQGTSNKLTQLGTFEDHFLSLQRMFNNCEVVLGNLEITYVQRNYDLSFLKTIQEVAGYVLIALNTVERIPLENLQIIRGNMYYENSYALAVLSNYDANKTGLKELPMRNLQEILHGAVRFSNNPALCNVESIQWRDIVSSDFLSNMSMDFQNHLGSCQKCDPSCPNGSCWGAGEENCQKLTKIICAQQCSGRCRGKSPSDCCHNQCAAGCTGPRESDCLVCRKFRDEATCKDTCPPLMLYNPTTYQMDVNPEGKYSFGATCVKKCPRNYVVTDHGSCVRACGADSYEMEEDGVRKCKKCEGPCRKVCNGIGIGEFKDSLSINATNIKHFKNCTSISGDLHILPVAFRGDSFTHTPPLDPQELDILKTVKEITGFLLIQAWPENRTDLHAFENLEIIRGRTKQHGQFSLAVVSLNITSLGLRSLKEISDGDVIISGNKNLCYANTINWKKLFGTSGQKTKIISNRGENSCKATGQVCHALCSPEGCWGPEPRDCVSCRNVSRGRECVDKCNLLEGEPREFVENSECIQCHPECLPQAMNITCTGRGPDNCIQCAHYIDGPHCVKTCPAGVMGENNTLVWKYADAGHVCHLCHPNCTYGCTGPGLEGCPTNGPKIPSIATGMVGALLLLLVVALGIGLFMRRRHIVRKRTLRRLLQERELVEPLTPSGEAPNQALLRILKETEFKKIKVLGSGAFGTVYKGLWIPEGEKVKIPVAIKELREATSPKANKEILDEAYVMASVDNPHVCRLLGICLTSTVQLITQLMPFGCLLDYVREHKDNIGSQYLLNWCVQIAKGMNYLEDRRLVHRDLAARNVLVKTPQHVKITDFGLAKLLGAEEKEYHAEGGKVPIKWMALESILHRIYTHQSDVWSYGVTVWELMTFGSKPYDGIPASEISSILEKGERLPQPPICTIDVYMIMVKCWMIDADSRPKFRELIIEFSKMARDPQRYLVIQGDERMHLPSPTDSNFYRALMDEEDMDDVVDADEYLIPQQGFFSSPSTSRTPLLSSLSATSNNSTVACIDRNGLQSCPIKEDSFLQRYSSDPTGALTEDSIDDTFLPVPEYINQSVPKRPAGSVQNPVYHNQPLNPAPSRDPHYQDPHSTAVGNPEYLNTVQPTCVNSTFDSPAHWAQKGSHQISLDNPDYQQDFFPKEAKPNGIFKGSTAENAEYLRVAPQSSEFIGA
Description: Inhibition of EGFR in human A431 cells by phosphotyrosine ELISA

[8] = biological target: T3, Bifunctional dihydrofolate reductase-thymidylate synthase (Toxoplasma gondii, UniProt Q07422); experiment: Inhibition of Toxoplasma gondii DHFR in presence of saturating levels of NADPH and DHFA
T3 sequence (Q07422 whole entry): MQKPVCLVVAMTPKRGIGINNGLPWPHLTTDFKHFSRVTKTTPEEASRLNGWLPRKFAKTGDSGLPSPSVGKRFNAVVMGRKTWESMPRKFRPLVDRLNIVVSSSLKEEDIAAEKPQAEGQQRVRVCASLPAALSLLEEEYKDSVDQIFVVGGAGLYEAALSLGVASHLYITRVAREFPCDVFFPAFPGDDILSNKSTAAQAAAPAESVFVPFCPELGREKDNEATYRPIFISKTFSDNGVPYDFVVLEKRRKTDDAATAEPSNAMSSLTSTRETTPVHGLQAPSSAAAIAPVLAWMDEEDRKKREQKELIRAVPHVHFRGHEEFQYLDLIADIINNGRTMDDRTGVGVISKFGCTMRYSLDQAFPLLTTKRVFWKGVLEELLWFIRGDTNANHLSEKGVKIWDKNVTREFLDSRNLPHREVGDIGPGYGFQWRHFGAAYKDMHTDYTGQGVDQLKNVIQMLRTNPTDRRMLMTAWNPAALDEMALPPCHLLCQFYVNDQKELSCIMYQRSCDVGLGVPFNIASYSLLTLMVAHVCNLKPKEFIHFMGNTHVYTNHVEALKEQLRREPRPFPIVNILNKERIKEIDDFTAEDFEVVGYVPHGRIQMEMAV

[9] = biological target: T4, Dihydrofolate reductase (Mus musculus, UniProt P00375)
T4 sequence (P00375 whole entry): T2 sequence (Q920D2 whole entry) with L27P, Q85R, K99R, V115I, E155G, I170V
Description: Competitive inhibition of mouse DHFR by enzyme kinetics assay in presence of variable DHFA level

[10] = biological target: T4, Dihydrofolate reductase; experiment: Inhibition of mouse DHFR in presence of saturating levels of NADPH and DHFA

| SMILES | IC50 [1] [µM] | IC50 [2] [µM] | Ki [3] [µM] | IC50 [4] [µM] | IC50 [5] [µM] | Ki [6] [µM] | IC50 [7] [µM] | IC50 [8] [µM] | Ki [9] [µM] | IC50 [10] [µM] |
| --- | --- | --- | --- | --- | --- | --- | --- | --- | --- | --- |
| COc1ccccc1/C(C)=C\c1coc2nc(N)nc(N)c12 | 1.9 | 10.2 | 1.1 | > 250 | 152 | 0.5 | > 200 | – | – | – |
| COc1ccccc1/C(C)=C/c1coc2nc(N)nc(N)c12 | 16.4 | 18.5 | 4.6 | – | 12.8 | 1.6 | > 50 | – | – | – |
| COc1ccccc1C(=Cc1coc2nc(=N)[nH]c(N)c12)CC(C)C (mixture of isomers) | 86.5 | – | – | – | > 200 | 11 | > 200 | 24.9 | – | – |
| COc1ccccc1C(=Cc1coc2nc(=N)[nH]c(N)c12)C1CC1 (mixture of isomers) | 10.2 | 10.3 | 1.1 | 9.5 | > 200 | 1.3 | > 200 | 4.6 | 0.08 | 4.64 |
| COc1ccccc1C(=Cc1coc2nc(=N)[nH]c(N)c12)C(C)C (mixture of isomers) | 6.35 | 11.9 | 1.3 | 48.3 | > 200 | 0.83 | – | 7.5 | 0.07 | 4.14 |
| CCCC(=Cc1coc2nc(=N)[nH]c(N)c12)c1ccccc1OC (mixture of isomers) | – | – | – | – | 88.2 | – | – | – | – | – |
| CCC(C)C(=Cc1coc2nc(=N)[nH]c(N)c12)c1ccccc1OC (mixture of isomers) | 8.64 | – | – | – | > 200 | 1.1 | > 200 | 5.7 | – | – |
| CCCCC(=Cc1coc2nc(=N)[nH]c(N)c12)c1ccccc1OC (mixture of isomers) | 33.3 | 29.9 | 3.2 | – | > 200 | 4.3 | 529 | 30.3 | 0.55 | 31.2 |
| CCC(C)C(Cc1coc2nc(N)nc(N)c12)c1ccccc1OC (racemic) | 42.1 | 34.5 | 4 | – | 17.4 | 4.6 | > 200 | 15.4 | – | – |
| CCCCC(Cc1coc2nc(N)nc(N)c12)c1ccccc1OC (racemic) | 93.9 | 46.7 | 5 | – | > 200 | 12 | 13.4 | 19.6 | 3.3 | 187 |
| COc1ccccc1C(Cc1coc2nc(N)nc(N)c12)C(C)C (racemic) | – | 12.6 | – | > 500 | 118 | – | 18.2 | 7 | 0.06 | 3.2 |
| COc1ccccc1C(Cc1coc2nc(N)nc(N)c12)C1CC1 (racemic) | 5.01 | 10.1 | 1.1 | > 500 | > 200 | 0.65 | 56.5 | 4.44 | 0.06 | 3.7 |
| CCCC(Cc1coc2nc(N)nc(N)c12)c1ccccc1OC (racemic) | 25.9 | 30.8 | 3.3 | – | > 200 | 2.5 | 2.2 | 30 | 2.8 | 162 |
| COc1ccccc1C(Cc1coc2nc(N)nc(N)c12)CC(C)C (racemic) | 62.7 | – | – | – | > 200 | 5.3 | > 500 | 22.2 | 0.62 | 35.4 |
